Measured values reported in US12281123B2, “Benzoxazinone compounds as KLK5/7 dual inhibitors” (MOLECULAR SKIN THERAPEUTICS, INC., priority 2019, dated 2025).
Marks after values point to notes of the source that are not given here.

What was measured:
Assay type in all cases: biochemical
Recombinant human KLK5 = target: T1, Recombinant human KLK5 (Homo sapiens, UniProt Q9Y337); experiment: Recombinant KLK5 chromogenic IC50 assay; settings: Table 2; assay protocol of Example 3; read-out: Recombinant KLK5 enzyme (IC50)
T1 construct: purchased SpeedBio (Gaithersburg, MD) / SpeedBioSystems; host or cells: HEK293
T1 sequence (Q9Y337 23-293): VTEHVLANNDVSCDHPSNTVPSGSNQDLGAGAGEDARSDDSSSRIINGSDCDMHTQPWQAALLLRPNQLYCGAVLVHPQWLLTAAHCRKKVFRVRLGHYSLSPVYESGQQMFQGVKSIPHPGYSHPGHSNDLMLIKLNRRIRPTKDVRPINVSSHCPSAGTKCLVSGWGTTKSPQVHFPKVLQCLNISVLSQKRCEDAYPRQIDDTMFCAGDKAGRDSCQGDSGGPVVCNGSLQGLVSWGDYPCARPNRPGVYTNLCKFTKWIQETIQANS
Source text: (§1) Human Kallikrein Proteins: Recombinant human KLK5 expressed in HEK293 was obtained from SpeedBio (Gaithersburg, MD). Recombinant proenzyme KLK-7 and recombinant proenzyme KLK-14 both expressed in mouse myeloma cells were from R&D Biosystems (Minneapolis, MN). Plasmin and thrombin were from Haematologic Technologies (Essex Junction, VT). Trypsin and Chymotrypsin were bought from Worthington Biochemical Corporation (Lakewood, NJ) and plasma kallikrein was from Prospec (East Brunswick, NJ). Neutrophil Elastase was obtained from Innovative Research (Peary Court, MI). Bovine recombinant enterokinase expressed in E. coli was bought from Sigma (St. Louis, MI). Matriptase expressed in E. coli was obtained from Enzo Life Sciences (Farmingdale, NY). The control inhibitors Nafamostat mesylate was from Sigma (St. Louis, MI) and (2-(2-fluorophenyl)-5,6,7,8-tetrahydro-4H-benzo[4,5]thieno[2,3-d][1,3]oxazin-4-one was from Interbioscreen (Moskow, Russia).
(§2) Substrates: S-2288 (D-Ile-Pro-Arg-pNA), CS-PSA (MeO-Suc-Arg-Pro-Tyr-pNA), S-2266 (H-D-Val-Leu-Arg-pNA) and S-2288 (H-D-Ile-Pro-Arg-pNA) were bought from Diapharma (West Chester, OH). MeOSuccAla-Ala-Pro-Val-pNA was purchased from Sigma (St Louis, MI). The substrates were dissolved in water at 10 mM and were frozen in aliquots at −20° C.
(§3) Assays: All assays were performed in 384 well polystyrene plates coated overnight with 0.1% Tween 20 at 4° C. The plates were then washed twice with 100 μL water and dried. For the determination of IC50 values, the inhibitors were diluted in serial dilutions of 1:3 intervals into pure DMSO at 50 fold of the intended final concentrations in the assays. Usually eight inhibitor dilutions and one DMSO control were prepared. The substrates were diluted into water at 2.2-fold the final concentration in the assay mixture. The wells of the plate were filled with 50 μL of the enzyme diluted in 2× assay buffer (100 mM Tris, 200 mM NaCl, 0.2% PEG, 0.01% Tween, 2 mM EDTA, pH 8.0) at twofold the intended concentration. Then 5 μL DMSO, 2.2 μL inhibitor and 45 μL substrate were added to start the reaction. The assays were monitored at 37° C. in a multi well plate reader at a wavelength of 405 nm (Molecular Devices, San Jose, CA) for 1 h. The tool inhibitor, nafamostat, was used as a control for trypsin, thrombin, KLK-5 and KLK-14 at 10 μM maximal concentration and (2-(2-fluorophenyl)-5,6,7,8-tetrahydro-4H-benzo[4,5]thieno[2,3-d][1,3]oxazin-4-one for KLK-7 at 5 μM.
(§4) The table summarizes assay conditions for the individual enzymes:
(§5) Data analysis: The progress curves of substrate hydrolysis were analyzed by linear regression of the final 20 min of the reaction. Fit of the dose response of the resulting rates to the following equation yielded the IC50:
(§6) [formula] with 1) c: the background rate at the highest inhibitor concentration; 2) d: the rate of the control reaction; 3) IC50: the IC50 of the inhibitor; 4) x: the inhibitor concentration; and 5) b: the slope.
(§7) Proteases: KLK5 (SpeedBioSystems); KLK7 (R&Dsystems) was activated with enterokinase (2 hours, 37° C.) prior to assay; Trypsin (Sigma Aldrich); Chymotrypsin (Sigma Aldrich); Factor Xa (Haematologic Technologies); Plasmin (Haematologic Technologies); KLK14 (R&Dsystems) was activated with enterokinase (1 hour, 37° C.) prior to assay; Thrombin (Haematologic Technologies); Neutrophil Elastase (Athens Research&Technology); and KLK1 (Prospec).

KLK7 = target: T2, KLK7 (Homo sapiens, UniProt P49862); experiment: Recombinant KLK7 chromogenic IC50 assay; settings: Table 2; assay protocol of Example 3; read-out: Recombinant KLK7 enzyme (IC50)
T2 construct: purchased R&D Biosystems (Minneapolis, MN) / R&Dsystems; host or cells: mouse myeloma cells
Source text: as §1, §2
Activation of KLK-7 and KLK-14: 150 μL 8 μM solution of the proenzymes of KLK-7 or KLK-14 in 50 mM Tris, 10 mM CaCl2, 150 mM NaCl, 0.05% (w/v) Brij-35, pH 7.5 were mixed with 150 μL 10 μg/mL bovine enterokinase in the same buffer and incubated for 2 h for KLK-7 and 1 h for KLK-14 at 37° C. After the incubation period, activation was stopped by addition of 6 μL 0.5 M EDTA pH 8.0.
as §3, §4, §5, §6, §7

[1] = system: KLK proteases in human skin extract; experiment: Inhibition of protease activity in human skin extract; settings: human skin extract; for Rate in Skin Assay: compound concentration not given
Description: Materials: The peptide substrates PS-01 (YRSR-pNA Tyr-Arg-Ser-Arg-pNA) (SEQ ID NO. 1) and PS-02 (Lys-His-Leu-Tyr-pNA) (SEQ ID NO. 2) were synthesized by Zamboni Chemical Solutions (Montreal, Canada). Human epidermis samples were obtained from Biopredic (Saint-Grégoire, France). The BCA protein assay kit was bought from VWR.
Preparation of skin extract: The epidermis was frozen and lyophilized. A sample of 15 mg lyophilized epidermis was immersed in 1 mL high salt buffer (100 mM Tris, 5 mM EDTA, 2M KCl, pH 8), frozen twice in dry ice and thawed. After incubation overnight at 4° C. and addition of six 2.4 mm metal beads, the sample was homogenized in a Bertin Precellys Homogenizer (Atkinson, NH) three times at […] for 20 seconds each and cooled in between for 30 seconds. After centrifugation at maximal speed in a desktop minifuge, the protein concentration of the supernatant was determined by BCA assay (˜0.5 mg/mL).
Inhibition of protease activity in skin extract: Stock solutions of 200, 66, 22 and 0 μM of the tested compound in DMSO were prepared. Substrate stocks of 1100 μM PS-01 and PS-02 were prepared by dissolving in water. The wells of a 384 well plate was filled with 50 μL 2× assay buffer (see above) and then 45 μL substrate stock and 5 μL of the test compound were added. The reaction was started by addition of 10 μL skin extract for the substrate PS-02 and 5 μL for the substrate PS-01. The substrate hydrolysis was monitored in multi-well plate reader at 405 nm.
Chromogenic substrate cleavage progressions of Compounds 1.001, 1.002, and 14 were tested according to human stratum corneum extract assay of Example 4 using KLK5 and KLK7 preferred chromogenic peptide substrates (PS-01 and PS-02). The proteolytic cleavage of KLK5 selective substrate in skin extract by Compounds 1.001, 1.002, and 14 are compared and shown in FIGS. 4A-4D. NSK refers to extract from skin freshly prepared; and OSK refers to extract from skin post freeze thaw.

T2 sequence (P49862 30-253): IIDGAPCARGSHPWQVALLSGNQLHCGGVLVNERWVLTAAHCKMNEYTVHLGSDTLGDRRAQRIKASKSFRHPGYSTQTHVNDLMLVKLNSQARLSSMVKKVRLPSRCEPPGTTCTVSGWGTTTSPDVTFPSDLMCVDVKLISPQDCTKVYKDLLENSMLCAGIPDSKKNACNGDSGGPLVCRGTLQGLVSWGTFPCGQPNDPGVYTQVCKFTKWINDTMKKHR

IC50 (Recombinant human KLK5) [nM]	IC50 (KLK7) [nM]	Compound	Initial rate of proteolytic activity ([1]; Conc 1 μM)	Initial rate of substrate hydrolysis ([1]; Conc 1 μM)	Initial rate of proteolytic activity ([1]; Conc 3.3 μM)	Initial rate of substrate hydrolysis ([1]; Conc 3.3 μM)	Rate in Skin Assay [1]
1570	220	CS(=O)(=O)c1ccc(CO)cc1-c1nc2cc3c(cc2c(=O)o1)OCCO3 [Compound 1.002, 2-(5-(Hydroxymethyl)-2-(methylsulfonyl)phenyl)-7,8-dihydro-4H-[1,4]dioxino[2′,3′:4,5]benzo[1,2-d][1,3]oxazin-4-one]	0.1* Absorbance405/min	0.06* Absorbance405/min	0.09* Absorbance405/min	0.05* Absorbance405/min	0.009* Absorbance405/min
240	130	CS(=O)(=O)c1ccccc1-c1nc2cc3c(cc2c(=O)o1)OCCO3 [Compound 14, reference compound]	0.13* Absorbance405/min	0.1* Absorbance405/min	0.11* Absorbance405/min	0.08* Absorbance405/min	0.14* Absorbance405/min
